Test results as given in publication PMC6691761, “Potential multifunctional agents with anti-hepatoma and anti-inflammation properties by inhibiting NF-кB activation” (Journal of Enzyme Inhibition and Medicinal Chemistry, 2019).

Legend:
Format in all cases: cell-based
[1] = test system: human liver hepatocellular carcinoma cell line (HepG2); experiment: Cytotoxicity, MTT assay, HepG2; settings: for IC50: MTT, 24 h; for HepG2 SI (selectivity index): quotient of IC50 towards LO2 cells
Text: (§1) Compounds 83–102 were screened against human neoplastic cell lines, such as human breast cancer cells (MCF-7), human colon cancer cells (HCT116), human lung carcinoma cells (A549), human gastric adenocarcinoma cells (SGC7901), human liver hepatocellular carcinoma cell line (HepG2), human cervical carcinoma cells (HeLa), human acute mononuclear granulocyte leukaemia (THP-1), and human normal hepatic cell line (LO2) using modified MTT assay. All the cells were obtained from the American Type Culture Collection (ATCC, Manassas, VA). The cells were cultured in DMEM or 1640. Positive controls (Doxorubicin (DOX) and Curcumin) and BAPs were initially dissolved in dimethyl sulphoxide (DMSO). Experimental concentration of DMSO was always 0.1% (v/v). The concentrations of BAPs and positive controls were 50, 20, 10, 5, 2.5, 1, 0.5, 0.1, 0.05, and 0.01 μg/mL.
(§2) The cells (1 × 10^4 cells/well) were seeded in a 96-well plate and incubated for 24 h. Cells treated with serial concentrations of drugs were incubated for another 24 h. After the media removed, 20 μL of MTT (5 mg/mL) solution was added and incubated for 4 h at 37 °C. The MTT solution was removed and then 150 μL of DMSO was added. The optical density was measured with a multi-well plate reader (TECAN, Mӓnnedorf, Switzerland) at 570 nm. The results are expressed as a decrease in the cell viability (%) in comparison to untreated controls. The concentration of each compound was examined in triplicate, and the IC50 values are expressed in Table 1.

[2] = test system: human breast cancer cells (MCF-7); experiment: Cytotoxicity, MTT assay, MCF-7; settings: for IC50: MTT, 24 h; for MCF-7 SI (selectivity index): quotient of IC50 towards LO2 cells
Text: as §1, §2

[3] = test system: human normal hepatic cell line (LO2); experiment: Toxicity to normal cells, MTT assay, LO2; settings: 24 h
Text: as §1, §2

[4] = test system: human lung carcinoma cells (A549); experiment: Cytotoxicity, MTT assay, A549; settings: for IC50: MTT, 24 h; for A549 SI (selectivity index): quotient of IC50 towards LO2 cells
Text: as §1, §2

[5] = test system: human acute mononuclear granulocyte leukaemia (THP-1); experiment: Cytotoxicity, MTT assay, THP-1; settings: for IC50: MTT, 24 h; for THP-1 SI (selectivity index): quotient of IC50 towards LO2 cells
Text: as §1, §2

[6] = test system: human colon cancer cells (HCT116); experiment: Cytotoxicity, MTT assay, HCT116; settings: for IC50: MTT, 24 h; for HCT116 SI (selectivity index): quotient of IC50 towards LO2 cells
Text: as §1, §2

[7] = test system: human gastric adenocarcinoma cells (SGC7901); experiment: Cytotoxicity, MTT assay, SGC7901; settings: for IC50: MTT, 24 h; for SGC7901 SI (selectivity index): quotient of IC50 towards LO2 cells
Text: as §1, §2

[8] = test system: human cervical carcinoma cells (HeLa); experiment: Cytotoxicity, MTT assay, HeLa; settings: for IC50: MTT, 24 h; for HeLa SI (selectivity index): quotient of IC50 towards LO2 cells
Text: as §1, §2

Row | SMILES | MCF-7 SI (selectivity index) [2] | A549 SI (selectivity index) [4] | HCT116 SI (selectivity index) [6] | SGC7901 SI (selectivity index) [7] | HeLa SI (selectivity index) [8] | IC50 [1] | HepG2 SI (selectivity index) [1] | IC50 [2] | IC50 [3] | IC50 [4] | IC50 [5] | THP-1 SI (selectivity index) [5] | IC50 [6] | IC50 [7] | IC50 [8] | further results
1 | CN1C/C(=C\c2cccc([N+](=O)[O-])c2)C(=O)/C(=C/c2ccccc2F)C1 [Compound 83, (3E,5E)-3–(2-fluorobenzylidene)-1-methyl-5–(3-nitrobenzylidene)piperidin-4-one] | 1.8 | 5.7 | 2.1 | 3.5 | 5.2 |  |  |  |  |  |  |  |  |  |  | IC50 ([1]; Homo sapiens, HepG2, 24 h): 1.2 ± 0.2 µM; IC50 ([2]; Homo sapiens, MCF7): 7.2 ± 0.3 µM; IC50 ([3]; Homo sapiens): 13.1 ± 0.8 µM; IC50 ([4]; Homo sapiens, A549, 24 h): 2.3 ± 0.2 µM; IC50 ([5]; Homo sapiens, THP-1, 24 h): 1.3 ± 0.1 µM; IC50 ([6]; Homo sapiens, HCT-116): 6.2 ± 0.6 µM; IC50 ([7]; Homo sapiens, SGC-7901): 3.7 ± 0.3 µM; IC50 ([8]; Homo sapiens, HeLa): 2.5 ± 0.3 µM
2 | CN1C/C(=C\c2cccc([N+](=O)[O-])c2)C(=O)/C(=C/c2ccc(F)cc2F)C1 [Compound 84] | 2.3 | 3.1 | 2.0 | 2.5 | 1.9 | 8.2 ± 0.3 µM | 2.4 | 8.5 ± 0.2 µM | 19.3 ± 0.3 µM | 6.2 ± 0.3 µM | 11.8 ± 0.2 µM | 1.6 | 9.5 ± 0.1 µM | 7.6 ± 0.8 µM | 10.2 ± 0.2 µM | 
3 | CN1C/C(=C\c2cc(F)cc(F)c2)C(=O)/C(=C/c2cccc([N+](=O)[O-])c2)C1 [Compound 85] | 1.1 | 2.1 | 1.5 | 0.8 | 1.4 | 14.3 ± 0.1 µM | 1.4 | 18.5 ± 0.4 µM | 20.3 ± 0.1 µM | 9.7 ± 0.2 µM | 5.4 ± 0.3 µM | 3.8 | 13.2 ± 0.5 µM | 24.5 ± 0.8 µM | 14.2 ± 0.6 µM | 
4 | CN1C/C(=C\c2cccc([N+](=O)[O-])c2)C(=O)/C(=C/c2cc(F)ccc2F)C1 [Compound 86] | 1.9 | 2.3 | 2.0 | 1.0 | 1.9 | 9.2 ± 0.4 µM | 2.3 | 11.1 ± 0.7 µM | 21.3 ± 0.4 µM | 9.3 ± 0.4 µM | 7 ± 0.2 µM | 3.0 | 10.5 ± 0.9 µM | 20.5 ± 0.5 µM | 11.5 ± 0.8 µM | 
5 | CN1C/C(=C\c2cccc([N+](=O)[O-])c2)C(=O)/C(=C/c2ccc(F)cc2Br)C1 [Compound 87] | 1.2 | 3.2 | 1.8 | 2.9 | 1.5 | 5.4 ± 0.5 µM | 2.5 | 11.6 ± 0.3 µM | 13.7 ± 0.5 µM | 4.3 ± 0.3 µM | 6.6 ± 0.1 µM | 2.1 | 7.7 ± 0.4 µM | 4.7 ± 0.3 µM | 9.4 ± 0.5 µM | 
6 | COc1cc(/C=C2\CN(C)C/C(=C\c3ccc(F)cc3Br)C2=O)cc(OC)c1OC [Compound 88] | 2.3 | 2.6 | 2.3 | 4.1 | 2.8 | 5.3 ± 0.2 µM | 2.8 | 6.3 ± 0.4 µM | 14.8 ± 0.3 µM | 5.6 ± 0.3 µM | 7.6 ± 0.2 µM | 1.9 | 6.5 ± 0.3 µM | 3.6 ± 0.1 µM | 5.3 ± 0.3 µM | 
7 | COc1ccccc1/C=C1\CN(C)C/C(=C\c2cc(OC)c(OC)c(OC)c2)C1=O [Compound 89] | 1.4 | 2.8 | 2.4 | 4.1 | 2.6 | 4.3 ± 0.1 µM | 3.2 | 9.7 ± 0.4 µM | 13.6 ± 0.1 µM | 4.9 ± 0.1 µM | 7.9 ± 0.3 µM | 1.7 | 5.6 ± 0.1 µM | 3.3 ± 0.3 µM | 5.3 ± 0.4 µM | 
8 | COc1ccc(/C=C2\CN(C)C/C(=C\c3cc(OC)c(OC)c(OC)c3)C2=O)cc1 [Compound 90] | 1.1 | 2.8 | 1.4 | 2.4 | 1.1 | 8.2 ± 0.6 µM | 2.0 | 15.5 ± 0.9 µM | 16.5 ± 0.1 µM | 5.8 ± 0.2 µM | 5 ± 0.3 µM | 3.3 | 12.1 ± 0.4 µM | 7 ± 0.4 µM | 15.5 ± 0.2 µM | 
9 | COc1ccc(/C=C2\CN(C)C/C(=C\c3ccc(Cl)c(Cl)c3)C2=O)cc1 [Compound 91] | 1.1 | 1.5 | 0.8 | 2.2 | 0.8 | 4.5 ± 0.7 µM | 3.2 | 12.5 ± 0.5 µM | 14.2 ± 0.3 µM | 9.2 ± 0.1 µM | 7.2 ± 0.2 µM | 2.0 | 18.1 ± 0.2 µM | 6.4 ± 0.1 µM | 17 ± 1.3 µM | 
10 | CN1CC(=Cc2cccc(N=Cc3ccc(Cl)cc3)c2)C(=O)C(=Cc2ccccc2F)C1 [Compound 94] | 2.8 | 3.1 | 2.9 | 2.8 | 1.6 | 4.8 ± 0.1 µM | 3.8 | 6.5 ± 0.1 µM | 18 ± 0.3 µM | 5.9 ± 0.3 µM | 4 ± 0.1 µM | 4.5 | 6.3 ± 0.1 µM | 6.4 ± 0.1 µM | 11.1 ± 0.3 µM | 
11 | CN1CC(=Cc2cccc(N=Cc3ccc(Cl)c(Cl)c3)c2)C(=O)C(=Cc2ccccc2F)C1 [Compound 95] | 2.0 | 3.5 | 1.7 | 3.3 | 2.6 | 2.5 ± 0.1 µM | 4.4 | 5.4 ± 0.2 µM | 11 ± 0.4 µM | 3.1 ± 0.2 µM | 3.8 ± 0.1 µM | 2.9 | 6.3 ± 0.2 µM | 3.3 ± 0.5 µM | 4.3 ± 0.1 µM | 
12 | CN1CC(=Cc2cccc(N=Cc3ccc(O)cc3O)c2)C(=O)C(=Cc2ccccc2F)C1 [Compound 98] | 1.7 | 5.5 | 1.5 | 1.6 | 2.8 | 7.5 ± 0.1 µM | 2.3 | 10.3 ± 0.7 µM | 17.6 ± 0.2 µM | 3.2 ± 0.7 µM | 5.1 ± 0.2 µM | 3.5 | 11.4 ± 0.7 µM | 10.9 ± 0.3 µM | 6.2 ± 0.1 µM | 
13 | CN1CC(=Cc2cccc(N=Cc3cc(O)ccc3O)c2)C(=O)C(=Cc2ccccc2F)C1 [Compound 99] | 2.6 | 3.5 | 2.1 | 3.3 | 1.0 | 8.2 ± 0.1 µM | 1.9 | 5.9 ± 0.2 µM | 15.6 ± 0.4 µM | 4.4 ± 0.1 µM | 7.8 ± 0.4 µM | 2.0 | 7.42 ± 0.1 µM | 4.7 ± 0.3 µM | 15.3 ± 1.1 µM | 
14 | COc1ccc(C=Nc2cccc(C=C3CN(C)CC(=Cc4ccccc4F)C3=O)c2)c(O)c1 [Compound 101] | 3.0 | 4.0 | 2.8 | 1.3 | 1.6 | 4.8 ± 0.1 µM | 2.9 | 4.7 ± 0.2 µM | 13.9 ± 0.3 µM | 3.5 ± 0.2 µM | 3.5 ± 0.2 µM | 4.0 | 4.9 ± 0.1 µM | 10.8 ± 0.1 µM | 8.9 ± 0.2 µM | 
